Experimental data taken from patent publication US20230277484A1, “COMPOSITIONS AND METHODS TO PROMOTE BRAIN HEALTH” (Guardian Biosciences, LLC, priority 2022, published 2023).

How the values were obtained:
[1] = mouse, in vivo
Method: 1. The purpose of this study is to determine tissue levels of a test article after dosing in mice.
3. Test system • Number of animals: 39 • Species/strain or breed: C57BL/6J • Age/Wt. at Arrival: 7 weeks • Sex: Female
On study day 0 animals were randomized into treatment groups based on body weight. Following enrollment, treatment was initiated and continued as indicated below. Body weights were recorded following enrollment. Sample collection time points are outlined below On study day 1, animals were necropsied as specified in Section 6.6 below.
7.6 Necropsy information • Method of euthanasia: bleed to exsanguinate followed by cervical dislocation. • Time points: N=3 at each time point; 0 (vehicle); 10 min; 30 min; 1, 2, 3 and 4h
Terminal blood samples were collected via cardiac blood draw and processed for plasma (K2 EDTA, 300-400 uL/animal. Plasma samples were stored at −80 C for shipment on dry ice for bioanalysis. From each animal, the entire brain was collected, flash frozen, and stored at −80 C for shipment on dry ice to bioanalysis.
A study was performed to collect plasma for pharmacokinetic monitoring after a single dose of R-(−)-3-hydroxybutyric acid sodium salt (“BHB”) or R-3′-hydroxybutyl (R)-3′-hydroxybutyrate (“BHB ester”) in female C57BL/6 mice. […]

weight drop model of TBI = assay: Beam-walk behavioral assay in the weight drop model of TBI; type: in vivo, C57BL/6J female mice
Source text: Test System. • Number of animals: 120 (100+20 extra for TBI deaths0 • Species/Strain or Breed: C57BL/6J • Vendor: Jackson Labs • Age/Wt at Arrival: 11 weeks at arrival • Gender: Female • Age/Wt at Study Initiation: 12 weeks • Acclimation: 7 days • Housing: 3-4 animals/cage
Study Design. Animals will arrive in the facility and will have access to food and water ad libitum. On study day 0, animals will be randomized based on bodyweight. Animals will be briefly anesthetized with isoflurane and subjected to traumatic brain injury (TBI) or sham injury as listed under Injury Induction. Animals will be weighed and undergo behavior testing (Beam Walking) and necropsied according to the Necropsy section.
They will then be placed individually in the prone position in a foam bed with their heads directly under a Plexiglas tube. A brass weight (80 g) will be dropped once through the tube from a specific height (0.8 m) and will strike the head directly creating a midline impact injury. Animals will be monitored for the presence of the forearm fencing response as a sign of moderate TBI. Animals will be placed in a clean cage on a heating pad for recovery, and righting reflex recovery times will be recorded for all animals. Sham animals will undergo all the same procedures but will not be subjected to TBI. Animals will be given 0.1 mg/kg SC buprenorphine directly after TBI to reduce acute pain associated with the injury and directly after sham procedures for the purpose of experimental matching. Animals will be checked daily, per the IACUC-approved post-operative monitoring plan.
Behavioral assay—Beam Walking (Luong, T N et al. Assessment of motor balance and coordination in mice using the balance beam.” J. Vis. Exp. (2011) 49: 2376) Fine motor coordination and balance can be assessed by the beam walking assay, which is a popular test for analyzing mice's gait in an environment that challenges their ability to balance themselves. The goal of this test is for the mouse to stay upright and walk across an elevated narrow beam to a safe platform. Performance on the beam is quantified by measuring the time it takes for the mouse to traverse the beam and the number of paw slips that occur in the process. This task is particularly useful for detecting subtle deficits in motor skills and balance that may not be detected by other motor tests, such as the Rotarod.
This test takes place over 3 consecutive days: 2 days of training and 1 day of testing. On training days, each mouse crosses the 12 mm beam 3 times and then the 6 mm beam 3 times. […] Mice are placed at one end of a beam and the time required to cross to the escape box at the other end (80 cm away) is measured by the motion detectors. […]
On the test day, times to cross each beam are recorded. […]

[2] = test system: IL-1β, IL-6, IL-10, TNF-α; assay: Luminex Mouse Inflammatory Panel in cortex after TBI; type: in vivo, C57BL/6J female mice
Method: Sacrifice Schedule: • a. Day 0—animals 1-5, all groups, 4h post TBI • b. Day 1—animals 6-10, all groups, 24 h post-TBI • c. Day 14—animals 11-20, all groups, 14d post TBI
Luminex Mouse Inflammatory Panel. FIG. 9A-FIG. 9C show pg/pg total protein of IL-1β (FIG. 9A), IL-6 (FIG. 9B) and IL-10 (FIG. 9C) expressed in the cortex in each study group from FIG. 8. […] While IL-10 is generally thought of as an anti-inflammatory cytokine, it also may promote fibrotic processes [Steen, E H et al. Adv. Wound Care (New Rochelle) (2020) 9 (4): 184-98, citing O'Garra, A. et al. Immunol. Rev. ([…]) 223: 114-31]. The data for the pre+post groups are consistent with the behavioral data.

[3] = test system: Neurofilament Light (NfL) Chain; assay: Neurofilament light chain in plasma after TBI; type: in vivo, C57BL/6J female mice; conditions: preliminary, data not shown
Method: Plasma collection method: Centrifuge plasma samples (EDTA tubes) at 2200×g (not RPM) for 15 minutes at room temperature. Observe separation of blood cells and plasma, with plasma layer on top. Draw off only the plasma layer and take care not to disturb buffy coat when aliquoting by leaving some plasma behind and avoiding the cell layer. Aliquot samples immediately into appropriately labeled tubes and then place them in a −80° C. freezer. […] [table]

[4] = citing Newman and Verdin 2017; cited from earlier work
human HCA2 = human HCA2 (Homo sapiens, UniProt Q8TDS4); conditions: citing Taggart et al. 2005; read-out: EC50 for activation of human HCA2; cited from earlier work
Sequence of human HCA2 (Q8TDS4 whole entry): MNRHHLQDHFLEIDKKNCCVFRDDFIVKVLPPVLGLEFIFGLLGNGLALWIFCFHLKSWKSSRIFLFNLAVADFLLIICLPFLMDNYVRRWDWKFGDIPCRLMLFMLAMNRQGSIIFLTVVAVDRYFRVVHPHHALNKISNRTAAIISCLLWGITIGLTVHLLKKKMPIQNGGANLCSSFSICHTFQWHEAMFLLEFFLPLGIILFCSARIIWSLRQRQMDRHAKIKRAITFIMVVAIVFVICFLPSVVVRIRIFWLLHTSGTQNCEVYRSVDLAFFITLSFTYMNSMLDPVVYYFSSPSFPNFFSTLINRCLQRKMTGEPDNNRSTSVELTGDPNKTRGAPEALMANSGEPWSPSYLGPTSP

Row | Structure (SMILES) | plasma levels relative to brain levels [1] | improvement in foot faults (weight drop model of TBI; 2× pre+post group, 1 day after TBI, IN daily) [%] | foot faults after IN delivery after TBI (weight drop model of TBI; as soon as day 1 after injury, greatest decrease in post and 2× pre and post groups at day 3) | beam walking at day 3, all treated groups (weight drop model of TBI; day 3, best results in post and 2× pre+post groups) | beam walking, treated groups vs TBI vehicle (weight drop model of TBI; pre, post, pre+post and 2× pre+post groups, day 1 and day 3) | IL-1β expression in cortex ([2]; 24 h and 14 day time points) | IL-6 expression in cortex ([2]; 24 h and 14 day time points) | IL-10 expression in cortex ([2]; 24 h and 14 day time points) | TNF-α results ([2]; data not shown) | NfL plasma results [3] | solubility in water and blood [4] | EC50 (human HCA2) [µM]
1 | C[C@@H](O)CCOC(=O)C[C@@H](C)O [BHB ester, R-3′-hydroxybutyl (R)-3′-hydroxybutyrate] | approximately ten fold |  |  |  |  |  |  |  |  |  |  | 
2 | C[C@@H](O)CC(=O)[O-].[Na+] [BHB salt, R-(−)-3-hydroxybutyric acid sodium salt] | approximately ten fold | 70 | decreased foot faults | significantly improved | showed improvement in beam walking | decreased expression | decreased expression | decreased expression | not significant | not significant |  | 
3 | CC(O)CC(=O)O (stereo not drawn) [BHB, beta-hydroxybutyrate] |  |  |  |  |  |  |  |  |  |  | readily soluble in water and blood | ~700
